Patent US20230364051A1, “FORMULATIONS AND METHODS FOR IMPROVING AVIAN HEALTH” (CORNELL UNIVERSITY, priority 2022, published 2023)
Marks after values point to notes of the source that are not given here.

Tests used:
[1] = Blood hemoglobin (QuantiChrom Hemoglobin Assay) at hatch after intraamniotic administration; assay type: in vivo, Gallus gallus; conditions: for Average Hb: day 17, blood at hatch
Description: (§1) Cornish-cross fertile broiler eggs (Gallus gallus, n = 39) were obtained from a commercial hatchery (Moyer’s chicks, Quakertown, PA, USA). The eggs were incubated under optimal conditions at the Cornell University Animal Science Poultry Farm Incubator [18]. […] Each group was then injected with the specific solution (1 mL per egg) with a 21-gauge needle into the amniotic fluid. Treatments in powder form were separately diluted in DI H2O. […] After injection, the injection holes were sealed with cellophane tape and the eggs were placed in hatching baskets such that each treatment was equally represented at each incubator location. Immediately upon hatch (day 21), blood was taken for hemoglobin determination and all chicks were then euthanized by CO2 exposure. The small intestine, pectoral muscle, cecum, and liver were collected, immediately frozen in liquid nitrogen, and then stored in a -80° C. freezer until analysis.
Blood was collected using micro-hematocrit heparinized capillary tubes (Fisher Scientific, Waltham, MA, USA). Blood Hb concentrations were determined spectrophotometrically using the QuantiChromTM Hemoglobin Assay (DIHB-250, BioAssay Systems, Hayward, CA, USA) following the kit manufacturer’s instructions.

glial cells = conditions: via ceruloplasmin and ferroportin-1; cited from earlier work
[2] = maternal intake perinatally and throughout pregnancy, mice; cited from earlier work
duodenum = assay: Duodenal tissue morphology examination (villi, crypts, goblet cells, Paneth cells); assay type: in vivo, Gallus gallus; conditions: for # Crypt Paneth Cells / Crypt Depth / Crypt Goblet Cell Diameter / Crypt Goblet Cell Number Acidic / Crypt Goblet Cell Number Mixture / Crypt Goblet Cell Number Neutral / Crypt Goblet Cell Number Total / Crypt Paneth cell Diameter / Villi Goblet Cell Diameter / Villi Goblet Cell Number Acidic / Villi Goblet Cell Number Mixture / Villi Goblet Cell Number Neutral / Villi Goblet Cell Number Total / Villus Height / Villus Surface Area / Villus Width: day 17, duodenum at hatch
Description: as §1
Intestinal morphology examination was performed as was previously described. Duodenum samples were fixed in fresh 4 wt. % (v/v) buffered formaldehyde, dehydrated, cleared, and embedded in paraffin. Serial sections were cut at 5 µm and placed on glass slides. Intestinal sections were deparaffinized in xylene, rehydrated in a graded alcohol series, stained with Alcian Blue/Periodic acid-Schiff, and examined by light microscopy. The following variables were measured in the intestine: villus height, villus width, crypt depth, Paneth cell number per crypt, Paneth cell width, goblet cell number, goblet cell diameter, types of goblet cells in the villi epithelium, and types of goblet cells within the crypts. Measurements in each segment were performed with a light microscope using CellSens Standard software (Olympus, Waltham, MA, USA).

[3] = 1.25 wt. % genistein intraamniotic
[4] = 2.5 wt. % genistein intraamniotic
[5] = 2.5 wt. % genistein vs no injection and H2O, p < 0.05
[6] = 2.5 wt. % vs 1.25 wt. % genistein, p < 0.05
[7] = both genistein treatment groups vs control groups, p < 0.05
[8] = genistein treatment groups (1.25, 2.5 wt. %) vs no injection, H2O and inulin, p < 0.05

For O=c1c(-c2ccc(O)cc2)coc2cc(O)cc(O)c12 [Genistein, genistein], the “Average Hb” value [1, 3] was 14.98 ± 0.45 ^a g/dL, the “Blood hemoglobin (Hb) levels vs controls” value ([1]; 1.25 wt. % genistein vs No Injection, H2O and 5 wt. % inulin, p < 0.05) was “significantly elevated” and the “Average Hb” value [1, 4] was 14.23 ± 0.79 ^ab g/dL. For the same compound, the “Blood hemoglobin vs controls” value ([1]; 2.5 wt. % genistein vs H2O and 5 wt. % inulin) was “significantly higher”, the “Blood hemoglobin vs control” value ([1]; 2.5 wt. % genistein vs No Injection) was “higher” and the Fe export (glial cells) was “significantly increased”. For the same compound, the “Harmful effects of a high-fat fed diet in dams and offspring” value [2] was “mitigated”, the “# Crypt Paneth Cells” value (duodenum; [3]) was 2.92 ± 0.10 ^b and the “Crypt Depth” value (duodenum; [3]) was 26.36 ± 0.46 ^c µm. The “Crypt Goblet Cell Diameter” value (duodenum; [3]) was 2.89 ± 0.02 ^a µm, the “Crypt Goblet Cell Number Acidic” value (duodenum; [3]) was 8.51 ± 0.14 ^a Unit and the “Crypt Goblet Cell Number Mixture” value (duodenum; [3]) was 0.74 ± 0.06 ^d Unit. For the same compound, the “Crypt Goblet Cell Number Neutral” value (duodenum; [3]) was 0.00 ± 0.00 ^a Unit, the “Crypt Goblet Cell Number Total” value (duodenum; [3]) was 9.25 ± 0.14 ^ab Unit and the “Crypt Paneth cell Diameter” value (duodenum; [3]) was 1.78 ± 0.04 ^a µm. The “Villi Goblet Cell Diameter” value (duodenum; [3]) was 3.41 ± 0.03 ^b µm, the “Villi Goblet Cell Number Acidic” value (duodenum; [3]) was 23.49 ± 0.67 ^a Unit and the “Villi Goblet Cell Number Mixture” value (duodenum; [3]) was 1.69 ± 0.13 ^e Unit. The “Villi Goblet Cell Number Neutral” value (duodenum; [3]) was 0.09 ± 0.03 ^b Unit, the “Villi Goblet Cell Number Total” value (duodenum; [3]) was 25.26 ± 0.67 ^a Unit and the “Villus Height” value (duodenum; [3]) was 204.18 ± 3.73 ^b µm. For the same compound, the “Villus Surface Area” value (duodenum; [3]) was 146.97 ± 4.55 ^c mm2, the “Villus Width” value (duodenum; [3]) was 44.51 ± 0.86 ^c µm and the “Crypt goblet cell diameter vs controls” value (duodenum; 1.25 wt. % genistein vs all control groups, p < 0.05) was “significantly greater”. For the same compound, the “Crypt Paneth cell diameter vs controls” value (duodenum; 1.25 wt. % genistein vs no injection and 5 wt. % inulin, p < 0.05) was “significantly (p < 0.05) higher”, the “Villus width vs controls” value (duodenum; 1.25 wt. % genistein vs no injection and H2O, p < 0.05) was “significantly (p < 0.05) greater” and the “# Crypt Paneth Cells” value (duodenum; [4]) was 3.24 ± 0.11 ^a. For the same compound, the “Crypt Depth” value (duodenum; [4]) was 23.65 ± 0.46 ^d µm, the “Crypt Goblet Cell Diameter” value (duodenum; [4]) was 2.63 ± 0.02 ^b µm and the “Crypt Goblet Cell Number Acidic” value (duodenum; [4]) was 8.81 ± 0.19 ^a Unit. For the same compound, the “Crypt Goblet Cell Number Mixture” value (duodenum; [4]) was 0.88 ± 0.06 ^d Unit, the “Crypt Goblet Cell Number Neutral” value (duodenum; [4]) was 0.00 ± 0.00 ^a Unit and the “Crypt Goblet Cell Number Total” value (duodenum; [4]) was 9.68 ± 0.19 ^a Unit. For the same compound, the “Crypt Paneth cell Diameter” value (duodenum; [4]) was 1.65 ± 0.03 ^b µm, the “Villi Goblet Cell Diameter” value (duodenum; [4]) was 3.50 ± 0.03 ^a µm and the “Villi Goblet Cell Number Acidic” value (duodenum; [4]) was 22.01 ± 0.51 ^b Unit. For the same compound, the “Villi Goblet Cell Number Mixture” value (duodenum; [4]) was 2.70 ± 0.16 ^d Unit, the “Villi Goblet Cell Number Neutral” value (duodenum; [4]) was 0.19 ± 0.04 ^a Unit and the “Villi Goblet Cell Number Total” value (duodenum; [4]) was 24.89 ± 0.54 ^a Unit. The “Villus Height” value (duodenum; [4]) was 238.22 ± 3.17 ^a µm, the “Villus Surface Area” value (duodenum; [4]) was 184.13 ± 4.66 ^b mm2 and the “Villus Width” value (duodenum; [4]) was 48.27 ± 0.87 ^b µm. The “Crypt goblet cell diameter vs inulin” value (duodenum; 2.5 wt. % genistein vs 5 wt. % inulin) was “significantly higher”, the “Villus height vs controls” value (duodenum; [5]) was “significantly increased” and the “Villus surface area vs controls” value (duodenum; [5]) was “significantly increased”. The “Villus width vs controls” value (duodenum; [5]) was “significantly increased”, the “Villus height, dose comparison” value (duodenum; [6]) was “significantly higher” and the “Villus surface area, dose comparison” value (duodenum; [6]) was “significantly higher”. The “Villus width, dose comparison” value (duodenum; [6]) was “significantly higher”, the “Acidic villi goblet cell count vs controls” value (duodenum; [7]) was “significantly higher” and the “Neutral villi goblet cell count vs controls” value (duodenum; [7]) was “significantly higher”. For the same compound, the “Mixture villi goblet cells vs controls” value (duodenum; both genistein treatment groups vs controls, p < 0.05) was “significantly reduced”, the “Acidic crypt goblet cell count vs controls” value (duodenum; both genistein treatment groups vs no injection, H2O and inulin, p < 0.05) was “significantly higher” and the “Total crypt goblet cell count vs controls” value (duodenum; genistein exposure vs no injection and H2O, p < 0.05) was “significantly higher”. For the same compound, the “Mixed crypt goblet cells vs controls” value (duodenum; genistein exposure vs no injection, H2O and inulin, p < 0.05) was “significantly reduced”, the “Total number of villi goblet cells vs controls” value (duodenum; [8]) was “significantly higher” and the “Villi goblet cell diameter vs controls” value (duodenum; [8]) was “significantly higher”. For the same compound, the “Crypt depth vs control” value (duodenum; genistein treatment groups vs H2O-injection group, p < 0.05) was “significantly lower” and the “Number of crypt Paneth cells vs controls” value (duodenum; genistein treatment groups vs no injection, H2O and inulin, p < 0.05) was “significantly greater”.
